In paper PMC7265429, “Characterization of a new small-molecule inhibitor of HDAC6 in glioblastoma” (Cell Death & Disease, 2020):

Tested on: GNS166 cells
Test: Microarray whole-transcriptome gene expression analysis
Type: cell-based, human
Conditions: DMSO vs SAHA, downregulated
Protocol: Whole-transcriptome analysis was performed from 300 ng of RNA using HuGene-2_0-st-v1 expression array (Affymetrix), which covers 48,226 transcripts. Raw data were first checked for quality purposes through the Affymetrix® Expression Console™ Software v1.4.1 and TAC software v4.0. Then, data were normalized using the Robust Multi-array Average (RMA) and analyzed by Limma tool. Probesets with FDR-corrected p-values smaller than 0.05 were selected. Functional enrichment on Gene Ontology (GO) biological processes was performed on a smaller subset of the differentially expressed genes (corrected p-value < 0.001) by means of Broad Institute GSEA. […] The data that support this study have been deposited in NCBI´s Gene Expression Omnibus and are accessible through GEO series accession number GSE143887.

Question: With `O=C(CCCCCCC(=O)Nc1ccccc1)NO` [SAHA, Suberoylanilide hydroxamic acid] as the compound, how does the “logFC IRAK1” value (transcript TC0X[…].hg.1) read?
Answer: The value was -1.235.

Question: And the “logFC B3GALT6” value (transcript TC0100006494.hg.1)?
Answer: The value was -0.9983.

Question: And the “logFC HMGN2” value (transcript TC0100007463.hg.1)?
Answer: The value was -1.008.

Question: What about the “logFC CDCA8” value (transcript TC0100007841.hg.1) of the same compound?
Answer: The value was -1.807.

Question: What about the “logFC ERMAP” value (transcript TC0100008033.hg.1) of the same compound?
Answer: Its value is -2.3938.

Question: What about the “logFC KIF2C” value (transcript TC0100008101.hg.1) of the same compound?
Answer: Its value is -1.858.

Question: And the “logFC CMPK1” value (transcript TC0100008190.hg.1)?
Answer: The value was -1.434.

Question: And the “logFC NEXN” value (transcript TC0100008807.hg.1)?
Answer: Its value is -1.823.

Question: And the “logFC HIST2H2AA3” value (transcript TC0100009876.hg.1)?
Answer: Its value is -1.529.

Question: And the “logFC HIST2H3A” value (transcript TC0100009877.hg.1)?
Answer: Its value is -1.612.

Question: And the “logFC GABPB2” value (transcript TC0100009939.hg.1)?
Answer: Its value is -1.449.

Question: What about the “logFC CKS1B” value (transcript TC0100010100.hg.1) of the same compound?
Answer: The value was -1.171.

Question: And the “logFC PMF1” value (transcript TC0100010161.hg.1)?
Answer: Its value is -1.537.

Question: What about the “logFC NUF2” value (transcript TC0100010397.hg.1) of the same compound?
Answer: Its value is -2.331.

Question: What about the “logFC FAM163A” value (transcript TC0100010786.hg.1) of the same compound?
Answer: Its value is -1.762.

Question: What about the “logFC CENPF” value (transcript TC0100011581.hg.1) of the same compound?
Answer: The value was -1.482.

Question: What about the “logFC EPHA2” value (transcript TC0100013028.hg.1) of the same compound?
Answer: The value was -1.043.

Question: What about the “logFC STMN1” value (transcript TC0100013369.hg.1) of the same compound?
Answer: Its value is -1.036.

Question: And the “logFC HIST2H3A” value (transcript TC0100015701.hg.1)?
Answer: Its value is -1.662.

Question: And the “logFC ASPM” value (transcript TC0100016831.hg.1)?
Answer: The value was -1.487.

Question: What about the “logFC DDX59” value (transcript TC0100016893.hg.1) of the same compound?
Answer: The value was -1.42.

Question: And the “logFC NUCKS1” value (transcript TC0100017075.hg.1)?
Answer: Its value is -1.264.

Question: And the “logFC EIF2D” value (transcript TC0100017100.hg.1)?
Answer: Its value is -1.459.

Question: What about the “logFC CD34” value (transcript TC0100017142.hg.1) of the same compound?
Answer: The value was -2.059.

Question: What about the “logFC LIN9” value (transcript TC0100017523.hg.1) of the same compound?
Answer: The value was -1.223.

Question: And the “logFC ZBTB8A” value (transcript TC0100018209.hg.1)?
Answer: Its value is -1.532.

Question: What about the “logFC HIST2H2AA4” value (transcript TC0100018482.hg.1) of the same compound?
Answer: Its value is -1.569.

Question: And the “logFC IAH1” value (transcript TC0200006648.hg.1)?
Answer: The value was -1.549.

Question: And the “logFC RRM2” value (transcript TC0200006677.hg.1)?
Answer: Its value is -1.424.

Question: What about the “logFC KCNIP3” value (transcript TC0200008464.hg.1) of the same compound?
Answer: Its value is -2.439.

Question: And the “logFC NCAPH” value (transcript TC0200008502.hg.1)?
Answer: Its value is -2.071.

Question: What about the “logFC GALNT5” value (transcript TC0200009739.hg.1) of the same compound?
Answer: The value was -2.15.

Question: And the “logFC CFLAR” value (transcript TC0200010443.hg.1)?
Answer: Its value is -1.832.

Question: What about the “logFC ADI1” value (transcript TC0200011551.hg.1) of the same compound?
Answer: Its value is -2.286.

Question: And the “logFC EVA1A” value (transcript TC0200013135.hg.1)?
Answer: Its value is -1.744.

Question: What about the “logFC NMI” value (transcript TC0200014610.hg.1) of the same compound?
Answer: The value was -2.309.

Question: What about the “logFC SPC25” value (transcript TC0200014845.hg.1) of the same compound?
Answer: The value was -1.44.

Question: And the “logFC SLC16A14” value (transcript TC0200015971.hg.1)?
Answer: The value was -1.405.

Question: What about the “logFC HJURP” value (transcript TC0200016099.hg.1) of the same compound?
Answer: The value was -1.261.

Question: And the “logFC CENPA” value (transcript TC0200016417.hg.1)?
Answer: Its value is -1.421.

Question: And the “logFC SPDYA” value (transcript TC0200016423.hg.1)?
Answer: The value was -1.919.

Question: What about the “logFC ACYP2” value (transcript TC0200016447.hg.1) of the same compound?
Answer: Its value is -1.266.

Question: And the “logFC FANCD2” value (transcript TC0300006575.hg.1)?
Answer: Its value is -1.767.

Question: And the “logFC KIF15” value (transcript TC0300007223.hg.1)?
Answer: The value was -1.9928.

Question: And the “logFC ARHGAP31” value (transcript TC0300008467.hg.1)?
Answer: Its value is -1.69.

Question: What about the “logFC FAIM” value (transcript TC0300008952.hg.1) of the same compound?
Answer: The value was -1.871.

Question: And the “logFC RTP4” value (transcript TC0300009799.hg.1)?
Answer: The value was -1.468.

Question: And the “logFC SUCLG2” value (transcript TC0300011436.hg.1)?
Answer: Its value is -1.146.

Question: And the “logFC BDH1” value (transcript TC0300013751.hg.1)?
Answer: Its value is -1.665.

Question: And the “logFC NAALADL2” value (transcript TC0300013904.hg.1)?
Answer: Its value is -1.839.

Question: What about the “logFC KCNMB2” value (transcript TC0300013906.hg.1) of the same compound?
Answer: Its value is -1.816.

Question: What about the “logFC NEIL3” value (transcript TC0400009396.hg.1) of the same compound?
Answer: The value was -0.9384.

Question: And the “logFC CCNA2” value (transcript TC0400011748.hg.1)?
Answer: The value was -1.45.

Question: What about the “logFC GPM6A” value (transcript TC0400012473.hg.1) of the same compound?
Answer: Its value is -1.528.

Question: And the “logFC TRIP13” value (transcript TC0500006472.hg.1)?
Answer: Its value is -1.825.

Question: And the “logFC NDUFS6” value (transcript TC0500006523.hg.1)?
Answer: Its value is -0.9474.

Question: And the “logFC IL7R” value (transcript TC0500007138.hg.1)?
Answer: Its value is -2.627.

Question: What about the “logFC NNT” value (transcript TC0500007303.hg.1) of the same compound?
Answer: The value was -1.728.

Question: And the “logFC CCNB1” value (transcript TC0500007665.hg.1)?
Answer: The value was -1.603.

Question: And the “logFC KIF20A” value (transcript TC0500008777.hg.1)?
Answer: Its value is -2.05.

Question: And the “logFC HIGD2A” value (transcript TC0500009587.hg.1)?
Answer: Its value is -1.228.

Question: What about the “logFC NSD1” value (transcript TC0500009610.hg.1) of the same compound?
Answer: Its value is -1.443.

Question: What about the “logFC ARSB” value (transcript TC0500011228.hg.1) of the same compound?
Answer: The value was -1.571.

Question: What about the “logFC BRD8” value (transcript TC0500012162.hg.1) of the same compound?
Answer: Its value is -1.077.

Question: What about the “logFC CRHBP” value (transcript TC0500013193.hg.1) of the same compound?
Answer: The value was -2.74.

Question: And the “logFC PCBD2” value (transcript TC0500013230.hg.1)?
Answer: Its value is -1.097.

Question: What about the “logFC FAM169A” value (transcript TC0500013328.hg.1) of the same compound?
Answer: The value was -1.569.

Question: And the “logFC HIST1H4C” value (transcript TC0600007268.hg.1)?
Answer: The value was -1.755.

Question: What about the “logFC HIST1H2BF” value (transcript TC0600007282.hg.1) of the same compound?
Answer: The value was -1.711.

Question: And the “logFC HIST1H4E” value (transcript TC0600007284.hg.1)?
Answer: The value was -2.005.

Question: And the “logFC HIST1H2AE” value (transcript TC0600007285.hg.1)?
Answer: Its value is -1.564.

Question: And the “logFC HIST1H2AL” value (transcript TC0600007380.hg.1)?
Answer: Its value is -1.235.

Question: What about the “logFC GTF3C6” value (transcript TC0600009140.hg.1) of the same compound?
Answer: The value was -2.124.

Question: And the “logFC HIST1H4B” value (transcript TC0600011123.hg.1)?
Answer: Its value is -1.235.

Question: What about the “logFC HIST1H3B” value (transcript TC0600011124.hg.1) of the same compound?
Answer: Its value is -1.868.

Question: And the “logFC HIST1H3D” value (transcript TC0600011135.hg.1)?
Answer: Its value is -1.444.

Question: And the “logFC HIST1H2BG” value (transcript TC0600011136.hg.1)?
Answer: The value was -1.568.

Question: And the “logFC HIST1H4H” value (transcript TC0600011145.hg.1)?
Answer: The value was -1.26.

Question: And the “logFC HIST1H2BJ” value (transcript TC0600011184.hg.1)?
Answer: The value was -1.604.

Question: What about the “logFC HIST1H2BK” value (transcript TC0600011185.hg.1) of the same compound?
Answer: Its value is -1.804.

Question: What about the “logFC PSMB8” value (transcript TC0600011507.hg.1) of the same compound?
Answer: The value was -1.143.

Question: What about the “logFC DNPH1” value (transcript TC0600011870.hg.1) of the same compound?
Answer: Its value is -1.264.

Question: What about the “logFC FBXO5” value (transcript TC0600013602.hg.1) of the same compound?
Answer: The value was -1.287.

Question: What about the “logFC HIST1H2AG” value (transcript TC0600014083.hg.1) of the same compound?
Answer: Its value is -2.001.

Question: And the “logFC NUDT3” value (transcript TC0600014283.hg.1)?
Answer: The value was -1.135.

Question: What about the “logFC LANCL2” value (transcript TC0700007610.hg.1) of the same compound?
Answer: The value was -1.812.

Question: And the “logFC GTF2I” value (transcript TC0700008010.hg.1)?
Answer: Its value is -1.635.

Question: What about the “logFC MEPCE” value (transcript TC0700008542.hg.1) of the same compound?
Answer: The value was -1.622.

Question: And the “logFC CAV1” value (transcript TC0700008873.hg.1)?
Answer: The value was -0.9681.
